This note sets out measurements from PubChem BioAssay (NCI).

Where “and” joins values, the source holds several entries; their conditions need not be identical. Equal entries are not always repeated.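 1) Cells in 96-well plates. 2) Compound, 48 h, 5 concentrations. 3) Linear interpolation between surrounding doses. 4) Unreached endpoint = highest concentration. GI50 marks 50% less growth. TGI marks complete inhibition of growth.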

Test systems include DLD-1 colon; DMS 114 small cell lung; DMS 273 small cell lung; HOP-18 NSCLC; KM20L2 colon; LXFL 529 NSCLC; XF 498 CNS; SNB-78 CNS; RXF-631 renal; P388 leukemia; P388/ADR leukemia; SN12K1 renal.
Common to all, as to test: NCI tumour cell line growth inhibition, 48 h

Take `COc1cc(C)c(CC/C(C)=C/Cc2cc(O)ccc2O)c(C)c1C`: the TGI with DLD-1 colon, in the experiment on DMS 114 small cell lung, with DMS 273 small cell lung, with HOP-18 NSCLC, with KM20L2 colon and in the experiment with LXFL 529 NSCLC was more than 25 µM throughout. The molecule further came in with a TGI in the experiment with XF 498 CNS of more than 25 µM.
With `CN(C)c1nc(Oc2nc(N(C)C)nc(N(C)C)n2)nc(N(C)C)n1`, the TGI with DLD-1 colon, with DMS 114 small cell lung, in the experiment with DMS 273 small cell lung, in the experiment on HOP-18 NSCLC, in the experiment with KM20L2 colon and with LXFL 529 NSCLC was more than 100 µM in each case. Besides, the TGI in the experiment with SNB-78 CNS and in the experiment with XF 498 CNS was more than 100 µM each time.
With `Cc1nc2ccccc2nc1CC(=O)C(=O)Nc1ccc(Cl)cc1Cl`, the TGI in the experiment on DLD-1 colon, in the experiment on DMS 273 small cell lung, in the experiment on KM20L2 colon, in the experiment on LXFL 529 NSCLC, with RXF-631 renal and with SNB-78 CNS was more than 100 µM each time.
`CCCCCCN(CCCCCC)C(=S)N/N=C(\C)c1ccccn1`: the TGI with DLD-1 colon stood at 2.93 µM; in the experiment on DMS 114 small cell lung it was 2.29 µM; in the experiment on DMS 273 small cell lung, 3.92 µM; with KM20L2 colon it was 2.34 µM; in the experiment with LXFL 529 NSCLC, 1.45 µM; in the experiment with RXF-631 renal, 3.67 µM. The same molecule came in with a TGI in the experiment on SNB-78 CNS of 2.34 µM.
Regarding `C[C@]12CCC3[C@@H](CCC45OC4C(=O)CC[C@]35C)C1Cc1cnn(-c3ccc(F)cc3)c1N2` (stereo not given in full), the TGI in the experiment on DMS 114 small cell lung was 50.5 µM; with DMS 273 small cell lung, 38.9 µM; in the experiment with HOP-18 NSCLC, more than 100 µM; with KM20L2 colon, 62.6 µM; with LXFL 529 NSCLC, more than 100 µM; in the experiment with SNB-78 CNS it was 79 µM. In the experiment with XF 498 CNS, the TGI was more than 100 µM.
Consider `O=[N+]([O-])c1cccc(C2=NN(c3ccccc3)C3c4cc(Br)ccc4OCC23)c1` (stereo not given), for which the TGI in the experiment on DLD-1 colon, in the experiment with DMS 114 small cell lung, in the experiment on DMS 273 small cell lung, in the experiment with HOP-18 NSCLC, in the experiment with KM20L2 colon and in the experiment on LXFL 529 NSCLC was more than 100 µM in each case. In addition, the TGI with SNB-78 CNS and with XF 498 CNS was more than 100 µM throughout.
Take `O=[N+]([O-])c1ccc(C[P+]2(c3ccccc3)CCCCC2)cc1`: the TGI with DLD-1 colon, with DMS 114 small cell lung, with DMS 273 small cell lung, in the experiment on HOP-18 NSCLC, in the experiment on KM20L2 colon and in the experiment with LXFL 529 NSCLC was more than 100 µM throughout.
As for `Cc1c2ccnc(C(N)=O)c2c(C)c2c1[nH]c1ccccc12`, the GI50 is 3.57 µM with DLD-1 colon; 6.72 µM in the experiment with DMS 114 small cell lung; 3.5 µM in the experiment with DMS 273 small cell lung; 15 µM with HOP-18 NSCLC; 6.28 µM in the experiment with SNB-78 CNS. Also, the TGI is 45 µM and 23.6 µM in the experiment with DLD-1 colon; 47.3 µM and 47.6 µM in the experiment with DMS 114 small cell lung; 23.7 µM and 16.7 µM in the experiment on DMS 273 small cell lung; 46.5 µM and 47.3 µM with HOP-18 NSCLC; 40.5 µM with KM20L2 colon; 26.9 µM in the experiment on LXFL 529 NSCLC. Moreover, the TGI with P388 leukemia is 14 µM; in the experiment with P388/ADR leukemia it was 35.8 µM; in the experiment with RXF-631 renal, 28.8 µM; in the experiment with SN12K1 renal, 19.1 µM; in the experiment on SNB-78 CNS, 48.3 µM and > 100 µM; with XF 498 CNS, 19.8 µM and 26.4 µM.
Regarding `CCCCCCCC(=O)OCC(COC(=O)C(C)(C)C)OC(=O)Cc1ccccc1` (stereo not given), the TGI in the experiment on DLD-1 colon, in the experiment on DMS 114 small cell lung, in the experiment on DMS 273 small cell lung, in the experiment with HOP-18 NSCLC, in the experiment with KM20L2 colon and in the experiment on LXFL 529 NSCLC was more than 100 µM each time.
Turning to `CC1=NN(C(=O)Cc2ccccc2)C(=O)/C1=C\c1ccc(O)cc1`, the TGI in the experiment on DLD-1 colon, in the experiment with DMS 114 small cell lung, with KM20L2 colon, with LXFL 529 NSCLC, in the experiment on SNB-78 CNS and with XF 498 CNS was more than 100 µM in each case.
For the molecule `CCOC(=O)C1C(c2ccc(Cl)cc2Cl)NC(c2ccc(C)cc2)C(C(=O)OC)S1(=O)=O` (stereo not given), the TGI in the experiment with DLD-1 colon, in the experiment with DMS 273 small cell lung, in the experiment on LXFL 529 NSCLC, in the experiment with SNB-78 CNS and with XF 498 CNS was more than 100 µM in each case.
Consider `Cc1c(N2CCOCC2)nc2ccc(Cl)cc2c1-c1ccccc1`, for which the TGI in the experiment on DMS 114 small cell lung, in the experiment on DMS 273 small cell lung, with LXFL 529 NSCLC and in the experiment with SNB-78 CNS was more than 100 µM each time.
With `COc1cc2ccc3c4cc(OC)c(OC)cc4c[n+](C)c3c2cc1O`, the TGI in the experiment with DLD-1 colon is more than 100 µM; with DMS 114 small cell lung it was more than 82.9 µM; in the experiment with DMS 273 small cell lung it was more than 100 µM; in the experiment with HOP-18 NSCLC, more than 100 µM; with KM20L2 colon it was more than 100 µM; in the experiment on LXFL 529 NSCLC it was more than 100 µM. The TGI with SNB-78 CNS was more than 100 µM; with XF 498 CNS it was more than 88.1 µM.
Turning to `Cc1cc([N+](=O)[O-])c(C)c2c1[nH]c1ccc(Cl)cc12`, the TGI in the experiment with DMS 114 small cell lung, in the experiment on DMS 273 small cell lung, in the experiment with HOP-18 NSCLC, in the experiment on SNB-78 CNS and in the experiment on XF 498 CNS was more than 100 µM each time.
